Laboratory results from PubChem BioAssay AID1259407 (Chemical Carcinogenesis Research Information System (CCRIS), 2018).
Calls of active or inactive are those of the source. The rule behind the calls is not given here.

System: CCRIS mutagenicity, Ames/micronucleus/aberration tests
Experiment: CCRIS mutagenicity studies
From the text: The CCRIS database contains chemical records with carcinogenicity, mutagenicity, tumor promotion, and tumor inhibition test results. It was developed by the National Cancer Institute (NCI). Data are derived from studies cited in primary journals, current awareness tools, NCI reports, and other sources. Test results have been reviewed by experts in carcinogenesis and mutagenesis.
CCRIS provides historical information from the years 1985 - 2011. It is no longer updated.
This is an archive assay for CCRIS mutagenicity studies.

[1] = Test System: AMES SALMONELLA TYPHIMURIUM, Strain/Indicator: TA100, Metabolic Activation: NONE, Method: STANDARD PLATE
[2] = Test System: AMES SALMONELLA TYPHIMURIUM, Strain/Indicator: TA1537, Metabolic Activation: NONE, Method: STANDARD PLATE
[3] = Test System: AMES SALMONELLA TYPHIMURIUM, Strain/Indicator: TA98, Metabolic Activation: NONE, Method: STANDARD PLATE
[4] = Test System: AMES SALMONELLA TYPHIMURIUM, Strain/Indicator: TA1538, Metabolic Activation: NONE, Method: STANDARD PLATE
[5] = Test System: AMES SALMONELLA TYPHIMURIUM, Strain/Indicator: TA98, Metabolic Activation: NONE, Method: PREINCUBATION
[6] = Test System: AMES SALMONELLA TYPHIMURIUM, Strain/Indicator: TA100, Metabolic Activation: NONE, Method: PREINCUBATION
[7] = Test System: AMES SALMONELLA TYPHIMURIUM, Strain/Indicator: TA1535, Metabolic Activation: NONE, Method: PREINCUBATION
[8] = Test System: AMES SALMONELLA TYPHIMURIUM, Strain/Indicator: TA1537, Metabolic Activation: NONE, Method: PREINCUBATION

Measured: mutagenic call

O=C(O)c1cc2c(c3c1c([N+](=O)[O-])cc1ccccc13)OCO2
active: [1] active; positive | Test System: AMES SALMONELLA TYPHIMURIUM, Strain/Indicator: TA100, Metabolic Activation: RAT, LIVER, CYTOSOL, Method: STANDARD PLATE active; positive | Test System: AMES SALMONELLA TYPHIMURIUM, Strain/Indicator: TA100, Metabolic Activation: RAT, LIVER, MICROSOMES, Method: STANDARD PLATE active; positive | Test System: AMES SALMONELLA TYPHIMURIUM, Strain/Indicator: TA100, Metabolic Activation: RAT, LIVER, S-9, 3-METHYLCHOLANTHRENE, Method: STANDARD PLATE active; positive | [2] active; positive | Test System: AMES SALMONELLA TYPHIMURIUM, Strain/Indicator: YG1020, Metabolic Activation: NONE, Method: STANDARD PLATE active; positive | Test System: AMES SALMONELLA TYPHIMURIUM, Strain/Indicator: YG1021, Metabolic Activation: NONE, Method: STANDARD PLATE active; positive | Test System: AMES SALMONELLA TYPHIMURIUM, Strain/Indicator: YG1024, Metabolic Activation: NONE, Method: STANDARD PLATE active; positive | Test System: AMES SALMONELLA TYPHIMURIUM, Strain/Indicator: YG1025, Metabolic Activation: NONE, Method: STANDARD PLATE active; positive | Test System: AMES SALMONELLA TYPHIMURIUM, Strain/Indicator: YG1026, Metabolic Activation: NONE, Method: STANDARD PLATE active; positive | Test System: AMES SALMONELLA TYPHIMURIUM, Strain/Indicator: YG1029, Metabolic Activation: NONE, Method: STANDARD PLATE active; positive
inactive: Test System: AMES SALMONELLA TYPHIMURIUM, Strain/Indicator: TA98, Metabolic Activation: RAT, LIVER, S-9, Method: STANDARD PLATE inactive; negative

CC(C)NCC(O)c1cc(O)cc(O)c1 (configuration not stated)
inactive: End Point: MORPHOLOGICAL TRANSFORMATION, Test System: SYRIAN HAMSTER EMBRYO CELLS (SHE), Metabolic Activation: NONE inactive; negative

O=C(Nc1ccc(Br)cc1)c1cc(Br)cc(Br)c1O
inactive: [3] inactive; negative | Test System: AMES SALMONELLA TYPHIMURIUM, Strain/Indicator: TA98, Metabolic Activation: RAT, LIVER, S-9, KANECHLOR 400, Method: STANDARD PLATE inactive; negative | [1] inactive; negative | Test System: AMES SALMONELLA TYPHIMURIUM, Strain/Indicator: TA100, Metabolic Activation: RAT, LIVER, S-9, KANECHLOR 400, Method: STANDARD PLATE inactive; negative | Test System: AMES SALMONELLA TYPHIMURIUM, Strain/Indicator: TA1535, Metabolic Activation: NONE, Method: STANDARD PLATE inactive; negative | Test System: AMES SALMONELLA TYPHIMURIUM, Strain/Indicator: TA1535, Metabolic Activation: RAT, LIVER, S-9, KANECHLOR 400, Method: STANDARD PLATE inactive; negative | [2] inactive; negative | Test System: AMES SALMONELLA TYPHIMURIUM, Strain/Indicator: TA1537, Metabolic Activation: RAT, LIVER, S-9, KANECHLOR 400, Method: STANDARD PLATE inactive; negative | [4] inactive; negative | Test System: AMES SALMONELLA TYPHIMURIUM, Strain/Indicator: TA1538, Metabolic Activation: RAT, LIVER, S-9, KANECHLOR 400, Method: STANDARD PLATE inactive; negative

Nc1ccccn1
inactive: Test System: AMES SALMONELLA TYPHIMURIUM, Strain/Indicator: TA98, Metabolic Activation: HAMSTER, LIVER, S-9, AROCLOR 1254 (10%), Method: PREINCUBATION inactive; negative | [5] inactive; negative | Test System: AMES SALMONELLA TYPHIMURIUM, Strain/Indicator: TA98, Metabolic Activation: RAT, LIVER, S-9, AROCLOR 1254 (10%), Method: PREINCUBATION inactive; negative | Test System: AMES SALMONELLA TYPHIMURIUM, Strain/Indicator: TA100, Metabolic Activation: HAMSTER, LIVER, S-9, AROCLOR 1254 (10%), Method: PREINCUBATION inactive; negative | [6] inactive; negative | Test System: AMES SALMONELLA TYPHIMURIUM, Strain/Indicator: TA100, Metabolic Activation: RAT, LIVER, S-9, AROCLOR 1254 (10%), Method: PREINCUBATION inactive; negative | Test System: AMES SALMONELLA TYPHIMURIUM, Strain/Indicator: TA1535, Metabolic Activation: HAMSTER, LIVER, S-9, AROCLOR 1254 (10%), Method: PREINCUBATION inactive; negative | [7] inactive; negative | Test System: AMES SALMONELLA TYPHIMURIUM, Strain/Indicator: TA1535, Metabolic Activation: RAT, LIVER, S-9, AROCLOR 1254 (10%), Method: PREINCUBATION inactive; negative | Test System: AMES SALMONELLA TYPHIMURIUM, Strain/Indicator: TA1537, Metabolic Activation: HAMSTER, LIVER, S-9, AROCLOR 1254 (10%), Method: PREINCUBATION inactive; negative | [8] inactive; negative | Test System: AMES SALMONELLA TYPHIMURIUM, Strain/Indicator: TA1537, Metabolic Activation: RAT, LIVER, S-9, AROCLOR 1254 (10%), Method: PREINCUBATION inactive; negative

CCCCOc1cc(N=Nc2ccc(N(CC)CC)cc2)ccc1N=Nc1c(S(=O)(=O)O)cc2ccc(N)cc2c1O
inactive: [3] inactive; negative | [1] inactive; negative | Test System: AMES SALMONELLA TYPHIMURIUM, Strain/Indicator: TA100, Metabolic Activation: RAT, LIVER, S-9, AROCLOR 1254, Method: STANDARD PLATE inactive; negative | [4] inactive; negative
active: Test System: AMES SALMONELLA TYPHIMURIUM, Strain/Indicator: TA98, Metabolic Activation: RAT, LIVER, S-9, AROCLOR 1254, Method: STANDARD PLATE active; positive | Test System: AMES SALMONELLA TYPHIMURIUM, Strain/Indicator: TA1538, Metabolic Activation: RAT, LIVER, S-9, AROCLOR 1254, Method: STANDARD PLATE active; positive

CC(I)C1OCC(CO)O1 (configuration not stated)
inactive: Test System: AMES SALMONELLA TYPHIMURIUM, Strain/Indicator: TA98, Metabolic Activation: HAMSTER, LIVER, S-9, AROCLOR 1254, Method: PREINCUBATION inactive; negative | [5] inactive; negative | Test System: AMES SALMONELLA TYPHIMURIUM, Strain/Indicator: TA98, Metabolic Activation: RAT, LIVER, S-9, AROCLOR 1254, Method: PREINCUBATION inactive; negative | Test System: AMES SALMONELLA TYPHIMURIUM, Strain/Indicator: TA1537, Metabolic Activation: HAMSTER, LIVER, S-9, AROCLOR 1254, Method: PREINCUBATION inactive; negative | [8] inactive; negative | Test System: AMES SALMONELLA TYPHIMURIUM, Strain/Indicator: TA1537, Metabolic Activation: RAT, LIVER, S-9, AROCLOR 1254, Method: PREINCUBATION inactive; negative | Test System: UDS RAT HEPATOCYTES, Metabolic Activation: NONE, Method: AUTORADIOGRAPHY inactive; negative
active: Test System: AMES SALMONELLA TYPHIMURIUM, Strain/Indicator: TA100, Metabolic Activation: HAMSTER, LIVER, S-9, AROCLOR 1254, Method: PREINCUBATION active; positive | [6] active; positive | Test System: AMES SALMONELLA TYPHIMURIUM, Strain/Indicator: TA100, Metabolic Activation: RAT, LIVER, S-9, AROCLOR 1254, Method: PREINCUBATION active; positive | Test System: AMES SALMONELLA TYPHIMURIUM, Strain/Indicator: TA1535, Metabolic Activation: HAMSTER, LIVER, S-9, AROCLOR 1254, Method: PREINCUBATION active; positive | [7] active; positive | Test System: AMES SALMONELLA TYPHIMURIUM, Strain/Indicator: TA1535, Metabolic Activation: RAT, LIVER, S-9, AROCLOR 1254, Method: PREINCUBATION active; positive | Test System: MOUSE LYMPHOMA, Strain/Indicator: L5178Y (TK+/TK-), Metabolic Activation: NONE, Method: SUSPENSION/PLATE active; positive

O=C(O[C@@H]1Cc2c(O)cc(O)cc2O[C@H]1c1ccc(O)c(O)c1)c1cc(O)c(O)c(O)c1
inactive: Test System: Ames Salmonella typhimurium, Strain/Indicator: TA102, Metabolic Activation: None, Method: Preincubation inactive; negative | Test System: Ames Salmonella typhimurium, Strain/Indicator: TA102, Metabolic Activation: Rat, Liver, S-9, Aroclor 1254 in 0.154 M KCl, Method: Preincubation inactive; negative
